Experimental data: paper PMC3388080 (PLoS ONE, 2012)

Legend:
Assay in all cases: CEREP radioligand binding
5-HT transporter (h) = biological target: T1, 5-HT transporter (h) (Homo sapiens, UniProt P31645); conditions: % of control specific binding
T1 construct: purchased CEREP
Experimental: (§1) SB-334867 was evaluated in a selectivity screen performed at CEREP (Paris, France). The screen consisted of binding assays on a panel of 79 target receptors. The specific binding (SB) of a radioligand to each target receptor was defined as the difference between the total binding and the nonspecific binding determined in the presence of a cold competitor in excess. […] Details on the CEREP screen are available from www.cerep.fr.

5-HT1A (h) = biological target: T2, 5-HT1A (h) (Homo sapiens, UniProt P08908); conditions: % of control specific binding
T2 construct: purchased CEREP
Experimental: as §1

5-HT2A (h) = biological target: T3, 5-HT2A (h) (Homo sapiens, UniProt P28223); conditions: % of control specific binding
T3 construct: purchased CEREP
Experimental: as §1

5-HT7 (h) = biological target: T4, 5-HT7 (h) (Homo sapiens, UniProt P34969); conditions: % of control specific binding
T4 construct: purchased CEREP
Experimental: as §1

A3 (h) = biological target: T5, A3 (h) (Homo sapiens, UniProt P0DMS8)
T5 construct: purchased CEREP
T5 sequence (P0DMS8 whole entry): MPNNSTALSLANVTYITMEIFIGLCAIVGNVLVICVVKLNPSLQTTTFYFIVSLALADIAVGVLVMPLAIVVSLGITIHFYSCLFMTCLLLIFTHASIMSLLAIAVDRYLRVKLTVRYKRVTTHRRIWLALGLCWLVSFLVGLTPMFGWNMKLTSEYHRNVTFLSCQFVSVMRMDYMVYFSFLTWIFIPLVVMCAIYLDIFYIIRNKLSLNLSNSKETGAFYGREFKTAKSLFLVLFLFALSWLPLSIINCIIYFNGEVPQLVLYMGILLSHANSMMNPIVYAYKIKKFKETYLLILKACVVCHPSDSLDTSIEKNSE
Experimental: as §1

AT2 (h) = biological target: T6, AT2 (h) (Homo sapiens, UniProt P50052); conditions: % of control specific binding
T6 construct: purchased CEREP
Experimental: as §1

B2 (h) = biological target: T7, B2 (h) (Homo sapiens, UniProt P30411); conditions: % of control specific binding
T7 construct: purchased CEREP
Experimental: as §1

BZD (central) = conditions: % of control specific binding
Experimental: as §1

BZD (peripheral) = biological target: T8, BZD (peripheral) (Rattus norvegicus, UniProt P16257); conditions: % of control specific binding
T8 construct: purchased CEREP
T8 sequence (P16257 whole entry): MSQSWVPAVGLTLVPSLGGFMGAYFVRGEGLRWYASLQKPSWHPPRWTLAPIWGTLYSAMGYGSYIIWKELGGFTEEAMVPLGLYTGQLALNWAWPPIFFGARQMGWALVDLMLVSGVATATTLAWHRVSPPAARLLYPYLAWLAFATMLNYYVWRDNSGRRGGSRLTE
Experimental: as §1

CCR1 (h) = biological target: T9, CCR1 (h) (Homo sapiens, UniProt P32246); conditions: % of control specific binding
T9 construct: purchased CEREP
Experimental: as §1

CGRP (h) = biological target: T10, CGRP (h) (Homo sapiens, UniProt O60894+Q16602); conditions: % of control specific binding
T10 construct: purchased CEREP
T10 sequence (Q16602 23-461): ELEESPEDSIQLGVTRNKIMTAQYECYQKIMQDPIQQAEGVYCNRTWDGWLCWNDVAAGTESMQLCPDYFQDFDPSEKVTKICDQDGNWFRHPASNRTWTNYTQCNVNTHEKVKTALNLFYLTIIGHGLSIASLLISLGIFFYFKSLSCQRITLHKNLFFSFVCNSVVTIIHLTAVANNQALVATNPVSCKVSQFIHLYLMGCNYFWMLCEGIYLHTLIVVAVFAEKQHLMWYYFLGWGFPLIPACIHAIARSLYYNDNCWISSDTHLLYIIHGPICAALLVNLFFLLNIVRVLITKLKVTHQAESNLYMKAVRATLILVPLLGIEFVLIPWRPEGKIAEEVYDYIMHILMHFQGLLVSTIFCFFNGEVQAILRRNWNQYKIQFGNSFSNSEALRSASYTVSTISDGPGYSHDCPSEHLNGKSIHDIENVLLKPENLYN
T10 sequence (O60894 27-148): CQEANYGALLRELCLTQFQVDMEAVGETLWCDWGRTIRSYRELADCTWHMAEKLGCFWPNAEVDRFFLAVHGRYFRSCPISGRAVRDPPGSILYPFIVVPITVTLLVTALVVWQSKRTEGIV
Experimental: as §1

[1] = test system: Ca2+ channel (L, verapamil site) (phenylalkylamines); conditions: % of control specific binding
Experimental: as §1

Cl- channel = conditions: % of control specific binding
Experimental: as §1

D1 (h) = biological target: T11, D1 (h) (Homo sapiens, UniProt P21728); conditions: % of control specific binding
T11 construct: purchased CEREP
T11 sequence (P21728 whole entry): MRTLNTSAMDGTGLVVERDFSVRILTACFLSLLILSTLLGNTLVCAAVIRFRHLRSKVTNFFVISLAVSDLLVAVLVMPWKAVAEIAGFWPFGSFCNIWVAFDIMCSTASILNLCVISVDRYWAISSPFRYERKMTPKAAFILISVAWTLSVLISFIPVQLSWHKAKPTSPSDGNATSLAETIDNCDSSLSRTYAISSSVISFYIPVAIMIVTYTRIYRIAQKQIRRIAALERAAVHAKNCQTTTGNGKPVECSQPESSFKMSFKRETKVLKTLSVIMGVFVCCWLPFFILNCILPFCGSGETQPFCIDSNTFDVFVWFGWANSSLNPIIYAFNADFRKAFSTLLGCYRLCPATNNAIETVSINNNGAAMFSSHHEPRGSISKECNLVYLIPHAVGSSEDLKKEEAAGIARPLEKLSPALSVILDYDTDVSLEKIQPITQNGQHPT
Experimental: as §1

D4.4 (h) = biological target: T12, D4.4 (h) (Homo sapiens, UniProt P21917); conditions: % of control specific binding
T12 construct: purchased CEREP
Experimental: as §1

D5 (h) = biological target: T13, D5 (h) (Homo sapiens, UniProt P21918); conditions: % of control specific binding
T13 construct: purchased CEREP
Experimental: as §1

ETA (h) = biological target: T14, ETA (h) (Homo sapiens, UniProt P25101); conditions: % of control specific binding
T14 construct: purchased CEREP
T14 sequence (P25101 21-427): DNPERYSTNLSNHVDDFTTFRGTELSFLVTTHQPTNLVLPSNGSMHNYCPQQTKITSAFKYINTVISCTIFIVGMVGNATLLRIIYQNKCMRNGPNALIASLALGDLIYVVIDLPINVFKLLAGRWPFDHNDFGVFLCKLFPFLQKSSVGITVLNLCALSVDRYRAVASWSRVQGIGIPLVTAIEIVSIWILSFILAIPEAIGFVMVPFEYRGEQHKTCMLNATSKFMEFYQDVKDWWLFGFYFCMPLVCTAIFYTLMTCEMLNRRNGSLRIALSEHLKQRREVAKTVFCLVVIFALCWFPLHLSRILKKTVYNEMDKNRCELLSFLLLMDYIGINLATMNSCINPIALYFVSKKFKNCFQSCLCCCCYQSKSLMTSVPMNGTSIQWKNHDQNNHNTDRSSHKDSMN
Experimental: as §1

GAL1 (h) = biological target: T15, GAL1 (h) (Homo sapiens, UniProt P47211); conditions: % of control specific binding
T15 construct: purchased CEREP
T15 sequence (P47211 whole entry): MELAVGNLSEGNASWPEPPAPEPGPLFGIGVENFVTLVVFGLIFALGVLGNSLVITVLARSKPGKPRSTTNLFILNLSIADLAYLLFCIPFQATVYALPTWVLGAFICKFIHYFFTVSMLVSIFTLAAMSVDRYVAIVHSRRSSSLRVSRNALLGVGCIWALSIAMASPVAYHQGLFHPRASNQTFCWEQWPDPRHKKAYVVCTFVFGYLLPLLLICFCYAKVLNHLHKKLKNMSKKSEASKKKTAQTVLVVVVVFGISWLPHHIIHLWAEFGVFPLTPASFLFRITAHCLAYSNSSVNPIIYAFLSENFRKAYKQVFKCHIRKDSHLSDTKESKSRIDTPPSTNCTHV
Experimental: as §1

H1 (h) = biological target: T16, H1 (h) (Homo sapiens, UniProt P35367); conditions: % of control specific binding
T16 construct: purchased CEREP
Experimental: as §1

H2 (h) = biological target: T17, H2 (h) (Homo sapiens, UniProt P25021); conditions: % of control specific binding
T17 construct: purchased CEREP
Experimental: as §1

K+V channel = conditions: % of control specific binding
Experimental: as §1

M1 (h) = biological target: T18, M1 (h) (Homo sapiens, UniProt P11229); conditions: % of control specific binding
T18 construct: purchased CEREP
T18 sequence (P11229 whole entry): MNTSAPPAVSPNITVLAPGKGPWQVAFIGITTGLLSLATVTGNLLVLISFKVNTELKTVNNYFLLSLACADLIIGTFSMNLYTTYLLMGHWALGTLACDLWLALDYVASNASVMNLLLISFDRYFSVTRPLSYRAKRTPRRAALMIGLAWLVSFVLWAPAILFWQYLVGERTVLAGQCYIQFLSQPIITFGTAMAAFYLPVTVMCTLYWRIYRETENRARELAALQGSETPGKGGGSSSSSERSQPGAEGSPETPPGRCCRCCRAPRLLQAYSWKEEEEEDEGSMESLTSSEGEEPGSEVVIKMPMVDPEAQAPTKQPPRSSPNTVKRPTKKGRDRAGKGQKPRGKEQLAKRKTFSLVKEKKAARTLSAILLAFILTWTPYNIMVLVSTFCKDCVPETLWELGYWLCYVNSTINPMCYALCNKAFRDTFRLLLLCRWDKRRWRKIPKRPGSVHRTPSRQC
Experimental: as §1

M2 (h) = biological target: T19, M2 (h) (Homo sapiens, UniProt P08172); conditions: % of control specific binding
T19 construct: purchased CEREP
Experimental: as §1

ML2 (MT3) = test system: ML2 (MT3)
Experimental: as §1

MT2 (h) (agonist site) = biological target: T20, MT2 (h) (agonist site) (Homo sapiens, UniProt P49286); conditions: % of control specific binding
T20 construct: purchased CEREP
Experimental: as §1

NK2 (h) = biological target: T21, NK2 (h) (Homo sapiens, UniProt P21452); conditions: % of control specific binding
T21 construct: purchased CEREP
T21 sequence (P21452 whole entry): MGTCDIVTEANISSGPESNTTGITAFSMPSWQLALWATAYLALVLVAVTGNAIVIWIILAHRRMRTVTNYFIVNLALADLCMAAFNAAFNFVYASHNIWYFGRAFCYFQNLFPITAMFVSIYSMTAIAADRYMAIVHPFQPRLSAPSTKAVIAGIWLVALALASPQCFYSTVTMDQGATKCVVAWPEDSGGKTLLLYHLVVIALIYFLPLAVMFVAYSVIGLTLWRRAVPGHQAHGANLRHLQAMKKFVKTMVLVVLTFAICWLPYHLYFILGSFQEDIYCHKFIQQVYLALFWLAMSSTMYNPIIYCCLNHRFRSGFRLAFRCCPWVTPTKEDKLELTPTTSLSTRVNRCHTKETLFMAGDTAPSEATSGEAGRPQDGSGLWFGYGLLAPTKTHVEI
Experimental: as §1

NK3 (h) = biological target: T22, NK3 (h) (Homo sapiens, UniProt P29371); conditions: % of control specific binding
T22 construct: purchased CEREP
Experimental: as §1

NT1 (h) (NTS1) = biological target: T23, NT1 (h) (NTS1) (Homo sapiens, UniProt P30989); conditions: % of control specific binding
T23 construct: purchased CEREP
Experimental: as §1

Na+ channel (site 2) = conditions: % of control specific binding
Experimental: as §1

P2X = conditions: % of control specific binding
Experimental: as §1

P2Y = test system: P2Y
Experimental: as §1

PCP = conditions: % of control specific binding
Experimental: as §1

PDGF = conditions: % of control specific binding
Experimental: as §1

SK+Ca channel = conditions: % of control specific binding
Experimental: as §1

TRH1 (h) = biological target: T24, TRH1 (h) (Homo sapiens, UniProt P34981); conditions: % of control specific binding
T24 construct: purchased CEREP
Experimental: as §1

TXA2/PGH2 (h) (TP) = biological target: T25, TXA2/PGH2 (h) (TP) (Homo sapiens, UniProt P21731); conditions: % of control specific binding
T25 construct: purchased CEREP
T25 sequence (P21731 whole entry): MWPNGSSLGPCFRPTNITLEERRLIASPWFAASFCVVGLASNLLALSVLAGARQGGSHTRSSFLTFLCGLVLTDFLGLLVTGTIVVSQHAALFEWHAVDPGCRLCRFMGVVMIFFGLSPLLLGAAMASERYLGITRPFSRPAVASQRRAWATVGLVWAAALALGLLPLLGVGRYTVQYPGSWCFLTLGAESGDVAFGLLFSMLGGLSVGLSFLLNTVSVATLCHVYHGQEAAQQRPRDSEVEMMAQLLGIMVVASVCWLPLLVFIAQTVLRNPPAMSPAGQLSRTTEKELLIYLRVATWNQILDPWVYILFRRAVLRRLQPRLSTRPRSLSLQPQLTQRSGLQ
Experimental: as §1

VIP1 (h) (VPAC1) = biological target: T26, VIP1 (h) (VPAC1) (Homo sapiens, UniProt P32241); conditions: % of control specific binding
T26 construct: purchased CEREP
T26 sequence (P32241 31-457): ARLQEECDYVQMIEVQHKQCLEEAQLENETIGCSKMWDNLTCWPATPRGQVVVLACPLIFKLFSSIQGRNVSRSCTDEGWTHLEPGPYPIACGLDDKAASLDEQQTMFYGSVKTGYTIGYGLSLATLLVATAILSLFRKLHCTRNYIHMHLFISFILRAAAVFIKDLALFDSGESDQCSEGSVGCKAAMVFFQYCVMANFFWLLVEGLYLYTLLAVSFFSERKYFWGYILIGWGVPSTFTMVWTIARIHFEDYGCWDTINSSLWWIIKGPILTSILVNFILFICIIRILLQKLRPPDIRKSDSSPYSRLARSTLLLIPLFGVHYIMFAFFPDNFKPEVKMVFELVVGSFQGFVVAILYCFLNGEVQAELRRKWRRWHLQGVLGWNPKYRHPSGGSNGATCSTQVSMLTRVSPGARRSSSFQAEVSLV
Experimental: as §1

Y2 (h) = biological target: T27, Y2 (h) (Homo sapiens, UniProt P49146); conditions: % of control specific binding
T27 construct: purchased CEREP
Experimental: as §1

alpha 1 (non-selective) = conditions: % of control specific binding
Experimental: as §1

alpha 2 (non-selective) = conditions: % of control specific binding
Experimental: as §1

beta 2 (h) = biological target: T28, beta 2 (h) (Homo sapiens, UniProt P07550); conditions: % of control specific binding
T28 construct: purchased CEREP
T28 sequence (P07550 whole entry): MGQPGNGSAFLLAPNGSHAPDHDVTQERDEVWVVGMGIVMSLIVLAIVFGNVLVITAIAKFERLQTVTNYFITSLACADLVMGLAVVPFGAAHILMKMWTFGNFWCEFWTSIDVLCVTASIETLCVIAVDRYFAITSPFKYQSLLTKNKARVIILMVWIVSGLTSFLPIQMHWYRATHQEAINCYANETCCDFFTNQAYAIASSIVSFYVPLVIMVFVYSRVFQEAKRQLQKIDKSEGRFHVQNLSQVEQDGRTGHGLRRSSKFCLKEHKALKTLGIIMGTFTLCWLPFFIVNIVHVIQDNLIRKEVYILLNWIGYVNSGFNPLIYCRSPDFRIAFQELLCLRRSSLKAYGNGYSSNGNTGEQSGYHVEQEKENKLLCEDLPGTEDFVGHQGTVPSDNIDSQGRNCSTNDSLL
Experimental: as §1

delta 2 (h) (DOP) = biological target: T29, delta 2 (h) (DOP) (Homo sapiens, UniProt P41143); conditions: % of control specific binding
T29 construct: purchased CEREP
Experimental: as §1

sigma (non-selective) = conditions: % of control specific binding
Experimental: as §1

T1 sequence (P31645 whole entry): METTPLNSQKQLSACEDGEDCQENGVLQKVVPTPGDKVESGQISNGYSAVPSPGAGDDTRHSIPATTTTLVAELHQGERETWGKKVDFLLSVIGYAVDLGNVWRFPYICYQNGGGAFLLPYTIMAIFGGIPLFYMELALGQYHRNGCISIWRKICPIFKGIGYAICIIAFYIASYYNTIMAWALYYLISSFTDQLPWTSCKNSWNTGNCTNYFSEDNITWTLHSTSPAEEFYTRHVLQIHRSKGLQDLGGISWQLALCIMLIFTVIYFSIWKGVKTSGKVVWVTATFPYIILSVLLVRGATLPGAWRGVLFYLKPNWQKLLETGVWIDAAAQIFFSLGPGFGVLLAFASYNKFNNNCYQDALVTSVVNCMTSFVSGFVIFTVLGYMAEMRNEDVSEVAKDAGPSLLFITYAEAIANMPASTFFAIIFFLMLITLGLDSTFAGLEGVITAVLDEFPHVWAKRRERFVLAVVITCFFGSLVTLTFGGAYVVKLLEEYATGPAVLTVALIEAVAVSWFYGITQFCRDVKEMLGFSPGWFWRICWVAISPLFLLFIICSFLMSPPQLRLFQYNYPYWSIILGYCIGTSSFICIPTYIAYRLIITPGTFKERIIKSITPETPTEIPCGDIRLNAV

For `Cc1nc2ccc(NC(=O)Nc3ccnc4cccnc34)cc2o1.Cl` [SB-334867, 1-(2-methylbenzoxazol-6-yl)-3-[1], [5]naphthyridin-4-yl-urea hydrochloride], the “% Control (10 µM) Mean SB” value (5-HT transporter (h)) was 110.7%, the “% Control (10 µM) Mean SB” value (5-HT1A (h)) was 106.6% and the “% Control (10 µM) Mean SB” value (5-HT2A (h)) was 89.5%. For the same compound, the “% Control (10 µM) Mean SB” value (5-HT7 (h)) was 99.9%, the “displacement of specific binding” value (A3 (h); 10 µM, A3) was 63% and the “% Control (10 µM) Mean SB” value (A3 (h); % of control specific binding) was 37.5%. The “% Control (10 µM) Mean SB” value (AT2 (h)) was 114.4%, the “% Control (10 µM) Mean SB” value (B2 (h)) was 97% and the “% Control (10 µM) Mean SB” value (BZD (central)) was 89.4%. The “% Control (10 µM) Mean SB” value (BZD (peripheral)) was 109.3%, the “% Control (10 µM) Mean SB” value (CCR1 (h)) was 94.5% and the “% Control (10 µM) Mean SB” value (CGRP (h)) was 103.6%. The “% Control (10 µM) Mean SB” value [1] was 92.3%, the “% Control (10 µM) Mean SB” value (Cl- channel) was 90.6% and the “% Control (10 µM) Mean SB” value (D1 (h)) was 82.7%. For the same compound, the “% Control (10 µM) Mean SB” value (D4.4 (h)) was 95.9%, the “% Control (10 µM) Mean SB” value (D5 (h)) was 118.6% and the “% Control (10 µM) Mean SB” value (ETA (h)) was 97.3%. For the same compound, the “% Control (10 µM) Mean SB” value (GAL1 (h)) was 118.5%, the “% Control (10 µM) Mean SB” value (H1 (h)) was 100.3% and the “% Control (10 µM) Mean SB” value (H2 (h)) was 86.6%. For the same compound, the “% Control (10 µM) Mean SB” value (K+V channel) was 108.1%, the “% Control (10 µM) Mean SB” value (M1 (h)) was 103.6% and the “% Control (10 µM) Mean SB” value (M2 (h)) was 87.3%. The “displacement of specific binding” value (ML2 (MT3); 10 µM, MT3 (melatonin)) was 102%, the “% Control (10 µM) Mean SB” value (ML2 (MT3); % of control specific binding) was -1.6% and the “% Control (10 µM) Mean SB” value (MT2 (h) (agonist site)) was 98.6%. For the same compound, the “% Control (10 µM) Mean SB” value (NK2 (h)) was 96%, the “% Control (10 µM) Mean SB” value (NK3 (h)) was 86.3% and the “% Control (10 µM) Mean SB” value (NT1 (h) (NTS1)) was 106.9%. For the same compound, the “% Control (10 µM) Mean SB” value (Na+ channel (site 2)) was 62.8%, the “% Control (10 µM) Mean SB” value (P2X) was 94.9% and the “displacement of specific binding” value (P2Y; 10 µM, P2Y (purinergic 2Y)) was 64%. For the same compound, the “% Control (10 µM) Mean SB” value (P2Y; % of control specific binding) was 36.4%, the “% Control (10 µM) Mean SB” value (PCP) was 91.8% and the “% Control (10 µM) Mean SB” value (PDGF) was 102.6%. For the same compound, the “% Control (10 µM) Mean SB” value (SK+Ca channel) was 114.4%, the “% Control (10 µM) Mean SB” value (TRH1 (h)) was 118.5% and the “% Control (10 µM) Mean SB” value (TXA2/PGH2 (h) (TP)) was 98.8%. For the same compound, the “% Control (10 µM) Mean SB” value (VIP1 (h) (VPAC1)) was 101%, the “% Control (10 µM) Mean SB” value (Y2 (h)) was 113% and the “% Control (10 µM) Mean SB” value (alpha 1 (non-selective)) was 87.5%. The “% Control (10 µM) Mean SB” value (alpha 2 (non-selective)) was 96.1%, the “% Control (10 µM) Mean SB” value (beta 2 (h)) was 94.6% and the “% Control (10 µM) Mean SB” value (delta 2 (h) (DOP)) was 86.1%. For the same compound, the “% Control (10 µM) Mean SB” value (sigma (non-selective)) was 98.6%.
